From patent publication US12678546B2, “Systems, methods, and apparatus for modeling and optimizing dialysis effects” (INNCELEREX, priority 2022, dated 2026)
Where two headings read alike, the source gives them in different places.

What was measured:
[1] = Ex-vivo simulated dialysis treatment (CRRT mimic) of bovine plasma containing creatinine; type: in vitro ADME; conditions: for Reduction in creatinine on the arterial side / Reduction in creatinine on the venous side / Total amount of creatinine in effluent, of total amount in the reservoir at time zero: at 60 minutes; for Change in creatinine concentration, venous vs. arterial side, mean over timepoints: the values are: percent change venous vs arterial; for C0 at 0 min: bovine, prior to starting ex-vivo dialysis, read-out: Starting creatinine concentration at time zero
Source text: FIG. 1 illustrates an exemplary system 100 and configuration for a simulated treatment on a drug or analyte of interest. The exemplary system 100 of FIG. 1 was designed and built to mimic Continuous Renal Replacement Therapy (CRRT). CRRT is a method of slower, continuous dialysis to allow solute and fluid homeostasis. CRRT […] intermittent hemodialysis and peritoneal dialysis. It is typically performed through pump-driven venovenous extracorporeal circuits and acts as renal support through blood purification to allow solute and fluid homeostasis. CRRT is often chosen for renal replacement in hemodynamically unstable patients, and it is often employed in the intensive care unit. With a slower rate of fluid removal, CRRT theoretically causes less hypotension than other dialysis techniques. Another advantage of CRRT for these patients is that they often require a large volume of fluid administration, including medications and parenteral nutrition, and CRRT can prevent an overloaded state.
The blood or plasma is introduced to the blood side 156 of the filter. Dialysate fluid that has no drug (nor analyte of interest) is pumped through the other side 157 of the filter. This process creates a movement of the analyte of interest from the blood side 156 of the filter to the dialysate side 157 and ultimately excretion into an effluent container 107 (simulating drug removal). The pumps 110, 111, 112, 113 are set at typical clinical levels (e.g., 300-500 mL/min) for pump speed and are optimized based on performance criteria (and by trial and error) for the specific treatment simulation.
In some embodiments, the system 100 is run for 1 hour, and during this time samples (500 μL each) are taken at the respective sample points 103, 104, 105, 106 at time 0, 10, 20, 30, 40 and 60 minutes after starting the pumps 110, 111, 112, 113. These samples are assayed for the analyte of interest. These are the numerical treatment simulation results that are used in silico (described below) to scale and to predict human dialysis situations (i.e., create a virtual patient) and also to extend the predictions to many other dialysis settings (e.g., different filter types, flow rates, type of fluids pumped in, etc.) that are used in different clinical conditions.
As shown in an exemplary algorithm and schematic of the invention in FIGS. 3A-3C, the treatment simulation and in-silico modeling, simulations, and extrapolation are used to determine the effects of dialysis on a drug or analyte of interest. In blocks A and B of FIG. 3A, bovine or human plasma or blood is spiked with a drug or an exogenous analyte existing in plasma or blood. In block C, pumps, tubing, flow rates, filters, temperature, pH, dialysis or replacement solutions and apparatus are configured to mimic a type of CRRT (Continuous Renal Replacement Therapy) or IHD (Intermittent Hemodialysis). In block D, the system is run for approximately 1-2 hours. In block E, multiple samples from different ports 103, 104, 105, 106 (arterial, venous, effluent, and blood/plasma reservoir) are taken during the treatment simulation and the sampling information is recorded. In block F, the samples for the drug/analyte collected are assayed. In block G, the amount of the drug that is removed by the treatment simulation is determined, and rate and ratio parameters for the drug removal from plasma or blood are calculated.
One analyte was creatinine used as control, and the other was drug X (a drug under development). The Cybernetic Dialysis™ system 200 measures how much of drug X and how much creatinine is removed by dialysis and (referring back to FIG. 1) includes water bath 101 with shaking tray with thermal control set at 37° C. […]

[2] = as above; type: in vitro ADME; conditions: HF1400 membrane; 5 min after start of ex-vivo dialysis
[3] = AN69 M150 membrane, 10 min after start of ex-vivo dialysis
[4] = AN69 M150 membrane, 20 min after start of ex-vivo dialysis
[5] = AN69 M150 membrane, 30 min after start of ex-vivo dialysis
[6] = AN69 M150 membrane, 40 min after start of ex-vivo dialysis
[7] = AN69 M150 membrane, 60 min after start of ex-vivo dialysis
[8] = HF1400 membrane, 10 min after start of ex-vivo dialysis
[9] = HF1400 membrane, 20 min after start of ex-vivo dialysis
[10] = HF1400 membrane, 30 min after start of ex-vivo dialysis
[11] = HF1400 membrane, 40 min after start of ex-vivo dialysis
[12] = HF1400 membrane, 60 min after start of ex-vivo dialysis

In the case of CN1CC(=O)NC1=N [creatinine], the “Creatinine concentration, Arterial” value [1, 3] is reported as 7.088 µg/mL, the “Creatinine concentration, Venous” value [1, 3] is reported as 5.545 µg/mL and the “Creatinine concentration, Arterial” value [1, 4] is reported as 6.53 µg/mL. For the same compound, the “Creatinine concentration, Venous” value [1, 4] was 5.216 µg/mL, the “Creatinine concentration, Arterial” value [1, 5] was 5.191 µg/mL and the “Creatinine concentration, Venous” value [1, 5] was 4.353 µg/mL. For the same compound, the “Creatinine concentration, Arterial” value [1, 6] was 4.145 µg/mL, the “Creatinine concentration, Venous” value [1, 6] was 3.706 µg/mL and the “Creatinine concentration, Arterial” value [1, 7] was 3.444 µg/mL. For the same compound, the “Creatinine concentration, Venous” value [1, 7] was 2.909 µg/mL, the “Reduction in creatinine on the arterial side” value ([1]; AN69 M150 membrane) was 60% and the “Creatinine concentration, Arterial” value ([1]; AN69 M150 membrane, time point 0 min, bovine plasma) was 8.581 µg/mL. For the same compound, the “Creatinine concentration, Arterial” value [1, 8] was 8.306 µg/mL, the “Creatinine concentration, Venous” value [1, 8] was 6.355 µg/mL and the “Creatinine concentration, Arterial” value [1, 9] was 6.174 µg/mL. The “Creatinine concentration, Venous” value [1, 9] was 5.052 µg/mL, the “Creatinine concentration, Arterial” value [1, 10] was 5.857 µg/mL and the “Creatinine concentration, Venous” value [1, 10] was 4.214 µg/mL. The “Creatinine concentration, Arterial” value [1, 11] was 5.261 µg/mL, the “Creatinine concentration, Venous” value [1, 11] was 3.782 µg/mL and the “Creatinine concentration, Arterial” value [1, 12] was 3.82 µg/mL. The “Creatinine concentration, Venous” value [1, 12] was 3.18 µg/mL, the Change in creatinine concentration, venous vs. arterial side, mean over timepoints ([1]; HF1400 membrane, FIG. 7) was -25.4% and the “Reduction in creatinine on the arterial side” value ([1]; HF1400 membrane) was 56%. For the same compound, the “Reduction in creatinine on the venous side” value ([1]; HF1400 membrane) was 63%, the “Total amount of creatinine in effluent, of total amount in the reservoir at time zero” value ([1]; HF1400 membrane) was 66.3% and the “Creatinine concentration, Arterial” value ([1]; HF1400 membrane, time point 0 min, bovine plasma) was 8.581 µg/mL. The Change in creatinine concentration, venous vs. arterial side, mean over timepoints ([1]; M150 AN69 membrane, FIG. 5) was -16.8%, the “Reduction in creatinine on the venous side” value ([1]; M150 AN69 membrane) was 66% and the “Total amount of creatinine in effluent, of total amount in the reservoir at time zero” value ([1]; M150 AN69 membrane) was 68.0%. The “Total amount of creatinine (at time zero) remaining in the membrane cartridge and associated tubing” value ([1]; both membrane types (M150 AN69 and HF1400)) was “about 5%”, the C0 at 0 min ([1]; AN69 M150 membrane) was 8370 ng/mL and the C0 at 0 min ([1]; HF1400 membrane) was 8580 ng/mL. For the same compound, the “Creatinine concentration, Arterial” value [2] was 8.675 µg/mL and the “Creatinine concentration, Venous” value [2] was 5.41 µg/mL.
